Where two headings read alike, the source gives them in different places.
Legend:
[1] = Acid dissociation constant pKa by neutralization titration; type: physicochemical; details: for metal extractant II pKa of a conjugate acid
Excerpt: An acid dissociation constant pKa of the metal extractant is not particularly limited, and an appropriate value for the kind, the number, and the like of the coordinating functional groups can be adopted. In the present invention, the pKa is a value measured by neutralization titration.
In the present invention, the pKa is a value measured by neutralization titration.
Regarding the synthesized or prepared metal extractant, the molecular weight and the pKa calculated using the above-described method are shown in Table 1-2.

[2] = Separation recovery method I, water phase W2 (Mn, Co, Ni sulfates) mixed with kerosine oil phase of the metal extractant; details: for Selection Ratio: W2, maximum amount of metal ions extracted / total amount of the other metal ions extracted, mixing amount 0.4 equivalent
Description: (§1) In addition, each of sulfates of a combination of metal ions shown in Table 1-1 was dissolved in ultrapure water to prepare each of metal ion-containing aqueous solutions (W2) and (W3) including two or three kinds of metal ions.
(§2) 12 mL of the extractant (Y1) with respect to 10 mL of the prepared metal ion-containing aqueous solution (W1) was added to a 30 mL vial tube, and the mixture was stirred using a stirrer tip at 25° C. for 30 minutes. In this case, the mixing amount (unit: equivalent) of the metal extractant with respect to the total content of metal ions to be coordinated (that have the same definition as the extracted metal ions; in Example 1, Co and Ni) was 0.5. Next, a 10 M sodium hydroxide aqueous solution or a 10 M hydrochloric acid was added to adjust the pH of the mixed solution to a value shown in the column “pH during Mixing” of Table 1-2. Further, the solution was stirred at 25° C. for 30 minutes, and was left to stand at the same temperature for 1 hour. After verifying that the solution was separated into two layers of the organic phase (oil phase) and the water phase, the separated water phase was extracted, and the separation and recovery of the metal ions was performed. The metal ions extracted in Example 1 and the metal ions extracted in the maximum amount are shown in the column “Kind” and the column “Maximum Amount Extracted” of the column “Extracted Metal Ions” in Table 1-2, respectively.
(§3) Separation and recovery of metal ions according to Examples 2 to 4 and 8 and Comparative Examples 1 to 6 and 9 were performed using the same method as that of Example 1, except that the metal ion-containing aqueous solution and the metal extractant solution were changed to a combination shown in Table 1-1 and Table 1-2 (hereinafter, both of which are referred to as Table 1″), the pH during the mixing of the water phase and the oil phase was set to a value shown in the column “pH during Mixing” of Table 1-2, and the mixing amount (unit: equivalent) of the metal extractant with respect to the total content of metal ions to be coordinated was set to a value shown in the column “Mixing Amount” of Table 1-2 for mixing and standing. The metal ions extracted in each of Examples and the metal ions extracted in the maximum amount are shown in the column “Kind” and the column “Maximum Amount Extracted” of the column “Extracted Metal Ions” in Table 1-2, respectively.
(§4) Regarding each of the water phases used in Examples and Comparative Examples and the water phases after the extraction, the pH was measured using a pH meter (SK-620 pH II, manufactured by SATOTECH), and each of the contents of dissolved metal ions was determined using an inductively coupled plasma-optical emission spectrometer (ICP-OES) (Optima 7300 D (trade name), manufactured by Perkin Elmer Co., Ltd.). Measured values of the pH of each of the water phases used in Examples and Comparative Examples and the content of dissolved metal ions in each of the water phases are shown in the column “Water Phase pH” of Table 1-2 and the column “Metal Ion Concentration (ppm)” of Table 1-1. The maximum amount (ppm) of the metal ions extracted measured as described above was divided by the total amount (ppm) of the other metal ions extracted to calculate a ratio between the amounts thereof extracted. The result is shown in the column “Selection Ratio” of Table 1-2.

[3] = Separation recovery method I, water phase W3 (Zr, Rh sulfates) mixed with kerosine oil phase of the metal extractant; details: maximum amount of metal ions extracted / total amount of the other metal ions extracted, mixing amount 0.7 equivalent
Description: as §1
12 mL of the extractant (Y1) with respect to 10 mL of the prepared metal ion-containing aqueous solution (W1) was added to a 30 mL vial tube, and the mixture was stirred using a stirrer tip at 25° C. for 30 minutes. In this case, the mixing amount (unit: equivalent) of the metal extractant with respect to the total content of metal ions to be coordinated (that have the same definition as the extracted metal ions; in Example 1, Co and Ni) was 0.5. […]
Regarding each of the water phases used in Examples and Comparative Examples and the water phases after the extraction, the pH was measured using a pH meter (SK-620 pH II, manufactured by SATOTECH), and each of the contents of dissolved metal ions was determined using an inductively coupled plasma-optical emission spectrometer (ICP-OES) (Optima 7300 D (trade name), manufactured by Perkin Elmer Co., Ltd.). Measured values of the pH of each of the water phases used in Examples and Comparative Examples and the content of dissolved metal ions in each of the water phases are shown in the column “Water Phase pH” of Table 1-2 and the column “Metal Ion Concentration (ppm)” of Table 1-1. […]

[4] = Separation recovery method I, water phase W1 (Co, Ni sulfates) mixed with kerosine oil phase of the metal extractant; details: maximum amount of metal ions extracted / total amount of the other metal ions extracted, mixing amount 0.5 equivalent
Description: 95.4 g of cobalt (II) sulfate heptahydrate (manufactured by FUJIFILM Wako Pure Chemicals Corporation) and 95.7 g of nickel (II) sulfate heptahydrate (manufactured by FUJIFILM Wako Pure Chemicals Corporation) were added to a 1L measuring flask, were diluted with ultrapure water, and were stirred and dissolved at 30° C. As a result, a metal ion-containing aqueous solution (W1) including two kinds of metal ions was prepared.
as §2, §3
Regarding each of the water phases used in Examples and Comparative Examples and the water phases after the extraction, the pH was measured using a pH meter (SK-620 pH II, manufactured by SATOTECH), and each of the contents of dissolved metal ions was determined using an inductively coupled plasma-optical emission spectrometer (ICP-OES) (Optima 7300 D (trade name), manufactured by Perkin Elmer Co., Ltd.). Measured values of the pH of each of the water phases used in Examples and Comparative Examples and the content of dissolved metal ions in each of the water phases are shown in the column “Water Phase pH” of Table 1-2 and the column “Metal Ion Concentration (ppm)” of Table 1-1. The maximum amount (ppm) of the metal ions extracted measured as described above was divided by the total amount (ppm) of the other metal ions extracted to calculate a ratio between the amounts thereof extracted. […]

[5] = Separation recovery method II, water phase W4 (Co, Ni sulfates with lithium chloride) mixed with kerosine oil phase of the metal extractant; details: for Selection Ratio: W4, maximum amount of metal ions extracted / total amount of the other metal ions extracted, mixing amount 0.5 equivalent
Description: 200 g of lithium chloride (manufactured by FUJIFILM Wako Pure Chemical Corporation), 95.4 g of cobalt (II) sulfate heptahydrate (manufactured by FUJIFILM Wako Pure Chemicals Corporation), and 95.7 g of nickel (II) sulfate heptahydrate (manufactured by FUJIFILM Wako Pure Chemicals Corporation) were added to a 1L measuring flask, were diluted with ultrapure water, and were stirred and dissolved at 30° C. As a result, a metal ion-containing aqueous solution (W4) including two kinds of metal ions was prepared. In this aqueous solution, in the two kinds of metal ions (cobalt and nickel), complex ions to which halide ions were coordinated were formed.
12 mL of the extractant (Y3) with respect to 10 mL of the prepared metal ion-containing aqueous solution (W4) was added to a 30 mL vial tube, and the mixture was stirred using a stirrer tip at 25° C. for 30 minutes. In this case, the mixing amount (unit: equivalent) of the metal extractant to the total content of the metal ions was 0.5. Next, a 10 M sodium hydroxide aqueous solution or a 10 M hydrochloric acid was added to adjust the pH of the mixed solution to a value shown in the column “pH during Mixing” of Table 1-2. Further, the solution was stirred at 25° C. for 30 minutes, and was left to stand at the same temperature for 1 hour. After verifying that the solution was separated into two layers of the organic phase (oil phase) and the water phase, the separated water phase was extracted, and the separation and recovery of the metal ions was performed. The metal ions extracted in Example 5 and the metal ions extracted in the maximum amount are shown in the column “Kind” and the column “Maximum Amount Extracted” of the column “Extracted Metal Ions” in Table 1-2, respectively.
The separation and recovery of the metal ions according to Examples 6 and 7 and Comparative Examples 7 and 8 was performed using the same method as that of Example 5, except that the metal ion-containing aqueous solution and the extractant solution were changed to a combination shown in Table 1-2, and the pH during the mixing of the water phase and the oil phase was set to a value shown in the column “pH during Mixing” of Table 1 for mixing and standing. The metal ions extracted in each of Examples and the metal ions extracted in the maximum amount are shown in the column “Kind” and the column “Maximum Amount Extracted” of the column “Extracted Metal Ions” in Table 1-2, respectively.
as §4

[6] = room temperature, concentration 310 mM
Description: Each of the synthesized or prepared metal extractants was added to a 100 mL measuring flask, and was diluted using kerosine (manufactured by FUJIFILM Wako Pure Chemicals Corporation) at room temperature. As a result, metal extractant solutions (Y1) to (Y6) and (Ycl) to (Yc9) (concentration: 310 mM) including the metal extractants were prepared, respectively.

Compound	pKa ([1]; read-out: pKa)	Selection Ratio [2]	Selection Ratio [4]	Selection Ratio [5]	further results
CCCCC(CC)CC(C(=O)O)N(CCN(CC(CC)CCCC)C(CC(CC)CCCC)C(=O)O)CC(CC)CCCC (stereo not drawn) [E-1]	6.1	20	10		Selection Ratio [3]: 6.7
CCCCC(CC)CCC(C(=O)O)N(CCN(CC(CC)CCCC)C(CCC(CC)CCCC)C(=O)O)CC(CC)CCCC (stereo not drawn) [E-2]	6.3		4.0		
CCCCC(CC)CN(CCN(CC(CC)CCCC)CC(CC)CCCC)CC(CC)CCCC (stereo not drawn) [E-3]	11.1			5.0	
CCCCCCCCCN(CCCCCCCCC)CCN(CCCCCCCCC)CCCCCCCCC [E-4]	11.4			3.3	
CCCCC(CC)CN(CC(CC)CCCC)CC1CCC(CN(CC(CC)CCCC)CC(CC)CCCC)CC1 (stereo not drawn) [E-5]	11.5			4.0	
CCCCC(CC)CN(CCN(CC(CC)CCCC)C(CCCOCCOC)C(=O)O)C(CCCOCCOC)C(=O)O (stereo not drawn) [E-6]	6.2		5.0		
O=C(O)CN(CCN(CC(=O)O)CC(=O)O)CC(=O)O [EDTA, ethylenediaminetetraacetic acid]	0.9				extraction of metal ions to the oil phase ([2]; W2, in words): not able to be extracted; dissolution in kerosine [6]: not able to be dissolved in kerosine
CCCCC(CC)COP(=O)(O)CC(CC)CCCC (stereo not drawn) [PC-88A, mono-2-ethylhexyl(2-Ethylhexyl)phosphonate]		1.4			selectivity of the Mn ions extracted in the maximum amount ([2]; W2, in words): low
CCCCC(CC)CN(CC(CC)CCCC)C(=O)CN(CCN(CC(=O)O)CC(=O)N(CC(CC)CCCC)CC(CC)CCCC)CC(=O)O (stereo not drawn) [T-1]	6	0.5			selectivity of the Mn ions extracted in the maximum amount ([2]; W2, in words): low
CCCCC(CC)CN(CC(CC)CCCC)C(=O)CNCC(=O)O (stereo not drawn) [T-2]	5.2	0.6			
CCCCC(CC)CC(OCCOC(CC(CC)CCCC)C(=O)O)C(=O)O (stereo not drawn) [T-3]	5.8		1.1		
CCCCC(CC)COCCOCC(CC)CCCC (stereo not drawn) [T-4]	13.4			1.5	amount of the metal ions extracted in the maximum amount ([5]; W4, in words): not sufficient
CCCCC(CC)CC(C(=O)O)N(CCC(C)SC)CCN(CCC(C)SC)C(CC(CC)CCCC)C(=O)O (stereo not drawn) [T-5]	6.1		1.2		
CCCCC(CC)CN(CC(CC)CCCC)CC(CC)CCCC (stereo not drawn) [Tris-2-EHA, tris(2-ethylhexyl)amine]	5.2			1.5	
Versatic acid 10 [VA-10]		0.7			pKa [1]: 7.9; selectivity of the Mn ions extracted in the maximum amount ([2]; W2, in words): low

Reference: patent publication US20250243560A1, “METAL EXTRACTANT AND SEPARATION RECOVERY METHOD OF METAL IONS USING METAL EXTRACTANT” (FUJIFILM Corporation, priority 2022, published 2025)
